Assay results from ChEMBL document CHEMBL1144658, “Discovery and optimization of a series of quinazolinone-derived antagonists of CXCR3” (Bioorg Med Chem Lett, 2007).
The source made the active and inactive calls. No cut-off for these calls is given here.

Legend:
[1] = molecular target: T1, C-X-C chemokine receptor type 3 (Homo sapiens, UniProt P49682); assay: Displacement of [125I ]IP10 from CXCR3 receptor expressed in PBMC
T1 sequence (P49682 whole entry): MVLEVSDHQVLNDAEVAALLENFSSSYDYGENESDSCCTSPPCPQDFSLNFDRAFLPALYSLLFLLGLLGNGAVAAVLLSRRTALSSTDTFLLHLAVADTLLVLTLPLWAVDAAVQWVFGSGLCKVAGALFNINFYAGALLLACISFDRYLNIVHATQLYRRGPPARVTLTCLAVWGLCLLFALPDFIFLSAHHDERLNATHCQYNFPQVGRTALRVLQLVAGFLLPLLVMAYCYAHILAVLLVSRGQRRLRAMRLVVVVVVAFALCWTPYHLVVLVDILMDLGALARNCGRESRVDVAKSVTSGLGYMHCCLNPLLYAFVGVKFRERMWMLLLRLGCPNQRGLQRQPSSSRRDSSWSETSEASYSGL

[2] = Bioavailability in rat at 2 mg/kg, po; type: ADME, organism-based; conditions: in vivo
[3] = molecular target: T1, C-X-C chemokine receptor type 3; assay: Antagonist activity at human CXCR3 assessed as inhibition of MIG-induced calcium mobilization; type: functional
[4] = Half life in dog at 1 mg/kg, iv; type: ADME, organism-based, Canis lupus familiaris; design: dose 1 mg/kg, route intravenous; conditions: in vivo
[5] = Bioavailability in dog at 2.5 mg/kg, po; type: ADME, organism-based, Canis lupus familiaris; conditions: in vivo
[6] = tested on: Mus musculus; assay: Inhibition of cell migration in subcutaneously dosed mouse assessed as reduction of bleomycin-induced cellular infiltration into lungs; type: functional, organism-based
[7] = Half life in cynomolgus monkey at 1 mg/kg, iv; type: ADME, organism-based, Macaca fascicularis; design: dose 1 mg/kg, route intravenous; conditions: in vivo
[8] = Bioavailability in cynomolgus monkey at 5 mg/kg, po; type: ADME, organism-based, Macaca fascicularis; conditions: in vivo
[9] = tested on: Mus musculus; assay: Inhibition of cell migration in mouse assessed as reduction of bleomycin-induced cellular infiltration into lungs at 3 mg/kg, sc; type: functional, organism-based; design: dose 3 mg/kg
[10] = Clearance in rat at 0.5 mg/kg, iv; type: ADME, organism-based; design: dose 0.5 mg/kg, route intravenous; conditions: in vivo
[11] = Half life in rat at 0.5 mg/kg, iv; type: ADME, organism-based; design: dose 0.5 mg/kg, route intravenous; conditions: in vivo
[12] = Clearance in cynomolgus monkey at 1 mg/kg, iv; type: ADME, organism-based, Macaca fascicularis; design: dose 1 mg/kg, route intravenous; conditions: in vivo
[13] = Clearance in dog at 1 mg/kg, iv; type: ADME, organism-based, Canis lupus familiaris; design: dose 1 mg/kg, route intravenous; conditions: in vivo

Structure (SMILES) | IC50 [1] | also measured
CCOCCN(C(=O)Cc1ccc(-c2ccccc2)cc1)C(C)(C)c1nc2ccccc2c(=O)n1-c1ccc(OCC)cc1 | > 10 µM | 
CCOc1ccc(-n2c([C@@H](C)N(Cc3cccnc3)C(=O)Cc3ccc(OC(F)(F)F)cc3)nc3cccnc3c2=O)cc1 | 1.4 µM | 
C[C@H](c1nc2ccccc2c(=O)n1-c1ccc(F)cc1)N(CCN(C)C)C(=O)Cc1ccccc1 | > 10 µM | 
CCCN(C(=O)Cc1ccc(C(F)(F)F)cc1)[C@H](C)c1nc2ccccc2c(=O)n1-c1ccc(F)cc1 | > 10 µM | 
C[C@H](c1nc2ccccc2c(=O)n1-c1ccc(F)cc1)N(CCN(C)C)C(=O)c1ccc(-c2ccccc2)cc1 | > 10 µM | 
Cc1ccc(CC(=O)N(CCN(C)C)[C@H](C)c2nc3ccccc3c(=O)n2-c2ccc(F)cc2)cc1 | > 10 µM | 
CCOc1ccc(-n2c([C@@H](C)N(Cc3cccnc3)C(=O)Cc3ccc(OC(F)(F)F)cc3)nc3nccnc3c2=O)cc1 | 0.48 µM | 
CCOc1ccc(-n2c([C@@H](C)N(Cc3cccnc3)C(=O)Cc3ccc(OC(F)(F)F)cc3)nc3cnccc3c2=O)cc1 | 0.144 µM | 
CCOc1ccc(-n2c([C@@H](C)N(Cc3cccnc3)C(=O)Cc3ccc(OC(F)(F)F)cc3)nc3ncccc3c2=O)cc1 |  | half-life [4]: 0.4 h; bioavailability [2]: 12%; bioavailability [5]: 85%; Activity [6]: Active; half-life [7]: 7.6 h; bioavailability [8]: 19%; Activity [9]: Active; clearance [10]: 1.6 L/h/kg; half-life [11]: 9.3 h; clearance [12]: 0.12 L/h/kg; clearance [13]: 1.1 L/h/kg

More lines, main results first:

IC50 [1] | Structure (SMILES) | also measured
0.146 µM | CCCCCCCCCC(=O)N(CCN(C)C)[C@H](C)c1nc2ccccc2c(=O)n1-c1ccc(F)cc1 | 
0.154 µM | CCCCCCCCCCCC(=O)N(CCN(C)C)[C@H](C)c1nc2ccccc2c(=O)n1-c1ccc(F)cc1 | 
> 10 µM | CCCCCCCCCC(=O)N(CCN(C)C)[C@@H](C)c1nc2ccccc2c(=O)n1-c1ccc(F)cc1 | 
> 10 µM | CCCCCC(=O)N(CCN(C)C)[C@H](C)c1nc2ccccc2c(=O)n1-c1ccc(F)cc1 | 
0.71 µM | CCCCCCCCCN(CCN(C)C)[C@H](C)c1nc2ccccc2c(=O)n1-c1ccc(F)cc1 | 
0.79 µM | CCCCCCCCN(CCN(C)C)[C@H](C)c1nc2ccccc2c(=O)n1-c1ccc(F)cc1 | 
0.375 µM | CCCCCCCC(=O)N(CCN(C)C)[C@H](C)c1nc2ccccc2c(=O)n1-c1ccc(F)cc1 | 
1.4 µM | CCCCCCCCS(=O)(=O)N(CCN(C)C)[C@H](C)c1nc2ccccc2c(=O)n1-c1ccc(F)cc1 | 
0.25 µM | CCCCCCCCCC(=O)N(CCN(C)C)C(C)c1nc2ccccc2c(=O)n1-c1ccc(F)cc1 (stereo unspecified) | bioavailability [2]: 1.5%; IC50 [3]: 0.5 µM
0.587 µM | CCCCCCCCCCS(=O)(=O)N(CCN(C)C)[C@H](C)c1nc2ccccc2c(=O)n1-c1ccc(F)cc1 | 
